The results in this text go back to ChEMBL document CHEMBL5365473, “Novel Sulfonylurea-Based NLRP3 Inflammasome Inhibitor for Efficient Treatment of Nonalcoholic Steatohepatitis, Endotoxic Shock, and Colitis” (J Med Chem, 2023).

Activity calls are given as the source filed them.

Series [1] has as its target NACHT, LRR and PYD domains-containing protein 3 (Mus musculus, UniProt Q8R4B8). Kind of series: Inhibition of NLRP3 inflammasome in mouse […] cells assessed as inhibition of LPS/ATP-induced IL-1 beta secretion primed with LPS for 4.5 hs followed by incubation with compound for 30 mins and later stimulation with ATP for 30 mins by ELISA. It is filed as cell-based, J774.A1. For orientation: ELISA stands for enzyme-linked immunosorbent assay.

The nature of series [2]: Effect on immune cell numbers in MCS diet-fed C57BL/6 mouse assessed as effect on CD45 expression at 40 mg/kg, po administered via gavage for 5 weeks by immunofluorescence staining based analysis. The format is toxicity, organism-based. The following applies: in vivo, 840 h.
The nature of series [3]: Effect on immune cell numbers in MCS diet-fed C57BL/6 mouse assessed as effect on F4/80 expression at 40 mg/kg, po administered via gavage for 5 weeks by immunofluorescence staining based analysis. The format is toxicity, organism-based. The settings on record: in vivo, 840 h.
Series [4] deals with Mus musculus. Kind of series: Antiinflammatory activity against MCD diet-induced NASH C57BL/6 mouse model assessed as reduction in liver fibrosis at 40 mg/kg, po administered via gavage for 5 weeks by Masson's trichrome staining based analysis. The format is functional, organism-based.
Series [5] relates to Mus musculus. Kind of series: Antiinflammatory activity against MCD diet-induced NASH C57BL/6 mouse model assessed as reduction in balloon dilatation in liver at 40 mg/kg, po administered via gavage for 5 weeks by Masson's trichrome staining based analysis. It is filed as functional, organism-based.
In series [6] the test system is Mus musculus. Kind of series: Antiinflammatory activity against MCD diet-induced NASH C57BL/6 mouse model assessed as reduction in liver steatosis at 40 mg/kg, po administered via gavage for 5 weeks by Masson's trichrome staining based analysis. It is filed as functional, organism-based.
Series [7] concerns Mus musculus. The experiment in a line: Antiinflammatory activity against MCD diet-induced NASH C57BL/6 mouse model assessed as improvement in liver morphology at 40 mg/kg, po administered via gavage for 5 weeks by Masson's trichrome staining based analysis. The format is functional, organism-based.
Series [8] concerns Mus musculus. Kind of series: Antiinflammatory activity against MCD diet-induced NASH C57BL/6 mouse model assessed as reduction in liver fibrosis at 40 mg/kg, po administered via gavage for 5 weeks by Sirius red staining based analysis. It is filed as functional, organism-based.
In series [9] the test system is Mus musculus. Kind of series: Antiinflammatory activity against MCD diet-induced NASH C57BL/6 mouse model assessed as reduction in balloon dilatation in liver at 40 mg/kg, po administered via gavage for 5 weeks by Sirius red staining based analysis. The format is functional, organism-based.
Series [10] has as its system Mus musculus. The experiment in a line: Antiinflammatory activity against MCD diet-induced NASH C57BL/6 mouse model assessed as reduction in liver steatosis at 40 mg/kg, po administered via gavage for 5 weeks by Sirius red staining based analysis. The format is functional, organism-based.
Series [11] has as its system Mus musculus. The experiment in a line: Antiinflammatory activity against DSS-induced ulcerative colitis C57BL/6 mouse assessed as reduction in inflammatory cells infiltration in lamina propria in colon at 10 mg/kg, ip administered for 9 days and measured on day 10 by H and E staining based analysis. It is filed as functional, organism-based. The following applies: time 10.0 day.

For the next series, the system named is L02. Kind of series: Cytotoxicity against human HL7702 cells assessed as reduction in cell viability at 200 uM measured after 24 hrs by CCK8 assay. The format is toxicity, cell-based. The following applies: l02, 24 h. (In general: Formazan colour is commonly taken as a measure of viable cells.)
A further series concerns Hepatocyte. The experiment in a line: Cytotoxicity against mouse primary hepatic cells assessed as reduction in cell viability at 200 uM measured after 24 hrs by CCK8 assay. It is filed as toxicity, cell-based. The settings on record: hepatocytes.
The nature of series [12]: Half life in C57BL/6 mouse at 20 mg/kg, po by LC-MS/MS analysis. It is filed as ADME, organism-based. The settings on record: in vivo.
Series [13] in a line: Oral bioavailability in C57BL/6 mouse at 20 mg/kg by LC-MS/MS analysis. It is filed as ADME, organism-based. The following applies: in vivo.
The subject of series [14] is Mus musculus. The experiment in a line: Antiinflammatory activity against MCD diet-induced NASH C57BL/6 mouse model assessed as protection against MCD diet-induced increase in liver to body weight ratio at 40 mg/kg, po administered via gavage for 5 weeks. The format is functional, organism-based.
Series [15] relates to Mus musculus. The experiment in a line: Antiinflammatory activity against MCD diet-induced NASH C57BL/6 mouse model assessed as improvement in liver morphology at 40 mg/kg, po administered via gavage for 5 weeks by H and E staining based analysis. The format is functional, organism-based.
Series [16] relates to Mus musculus. Kind of series: Antiinflammatory activity against MCD diet-induced NASH C57BL/6 mouse model assessed as reduction in liver steatosis at 40 mg/kg, po administered via gavage for 5 weeks by H and E staining based analysis. It is filed as functional, organism-based.
Series [17] has as its system Mus musculus. Kind of series: Antiinflammatory activity against MCD diet-induced NASH C57BL/6 mouse model assessed as reduction in balloon dilatation in liver at 40 mg/kg, po administered via gavage for 5 weeks by H and E staining based analysis. The format is functional, organism-based.
Series [18] concerns Mus musculus. Kind of series: Antiinflammatory activity against MCD diet-induced NASH C57BL/6 mouse model assessed as reduction in liver fibrosis at 40 mg/kg, po administered via gavage for 5 weeks by H and E staining based analysis. It is filed as functional, organism-based.
The test system of series [19] is Mus musculus. The experiment in a line: Antiinflammatory activity against MCD diet-induced NASH C57BL/6 mouse model assessed as improvement in liver morphology at 40 mg/kg, po administered via gavage for 5 weeks by Sirius red staining based analysis. The format is functional, organism-based.
In series [20] the test system is Mus musculus. Kind of series: Antiinflammatory activity against MCD diet-induced NASH C57BL/6 mouse model assessed as reduction in TUNEL-positive hepatic cells at 40 mg/kg, po administered via gavage for 5 weeks by TUNEL assay. It is filed as functional, organism-based.
For series [21], the system named is Mus musculus. Kind of series: Antiinflammatory activity against MCD diet-induced NASH C57BL/6 mouse model assessed as reduction in immune cell infiltration by measuring reduction in F4/80-positive hepatic cells at 40 mg/kg, po administered via gavage for 5 weeks by immunofluorescence staining based analysis. It is filed as functional, organism-based.
Series [22] deals with Mus musculus. The experiment in a line: Antiinflammatory activity against MCD diet-induced NASH C57BL/6 mouse model assessed as reduction in immune cell infiltration by measuring reduction in CD45-positive hepatic cells at 40 mg/kg, po administered via gavage for 5 weeks by immunofluorescence staining based analysis. It is filed as functional, organism-based.
The test system of series [23] is Mus musculus. The experiment in a line: Antiinflammatory activity against LPS-induced lethal septic shock C57BL/6 mouse model assessed as increase in animal's survival rate at 40 mg/kg, ip administered for 1 hr prior to LPS challenge and measured for 72 hrs. The format is functional. The following applies: time 73 hrs.
For series [24], the system named is Mus musculus. Kind of series: Antiinflammatory activity against LPS-induced lethal septic shock C57BL/6 mouse model assessed as increase in animal's survival rate at 20 mg/kg, ip administered for 1 hr prior to LPS challenge and measured for 72 hrs. The following applies: time 73 hrs. The format is functional.
Series [25] deals with Mus musculus. Kind of series: Antiinflammatory activity against LPS-induced lethal septic shock C57BL/6 mouse model assessed as reduction in serum IL-1 beta level at 20 to 40 mg/kg, ip administered for 1 hr prior to LPS challenge and measured after 2.5 hrs by ELISA. It is filed as functional, organism-based. The settings on record: dose 20-40 mg/kg, time 3.5 hrs.
Series [26] concerns Mus musculus. Kind of series: Antiinflammatory activity against LPS-induced lethal septic shock C57BL/6 mouse model assessed as effect on TNF-alpha level at 40 mg/kg, ip administered for 1 hr prior to LPS challenge and measured after 2.5 hrs by ELISA. It is filed as functional, organism-based. The following applies: time 3.5 hrs.
For series [27], the system named is Mus musculus. The experiment in a line: Antiinflammatory activity against DSS-induced ulcerative colitis C57BL/6 mouse assessed as reduction in body weight loss at 10 mg/kg, ip administered for 9 days and measured daily. It is filed as functional, organism-based. The following applies: time 9.0 day.
Series [28] relates to Mus musculus. Kind of series: Antiinflammatory activity against DSS-induced ulcerative colitis C57BL/6 mouse assessed as reduction in colon length shortening at 10 mg/kg, ip administered for 9 days and measured on day 10. The format is functional, organism-based. The settings on record: time 10.0 day.
Series [29] has as its system Mus musculus. Kind of series: Antiinflammatory activity against DSS-induced ulcerative colitis C57BL/6 mouse assessed as reduction in mucosal barrier disruption in colon at 10 mg/kg, ip administered for 9 days and measured on day 10 by H and E staining based analysis. It is filed as functional, organism-based. The settings on record: time 10.0 day.
Series [30] has as its system Mus musculus. The experiment in a line: Antiinflammatory activity against DSS-induced ulcerative colitis C57BL/6 mouse assessed as reduction in crypt necrosis in colon at 10 mg/kg, ip administered for 9 days and measured on day 10 by H and E staining based analysis. The format is functional, organism-based. The settings on record: time 10.0 day.
Series [31] has as its system Mus musculus. Kind of series: Antiinflammatory activity against DSS-induced ulcerative colitis C57BL/6 mouse assessed as reduction in massive loss of goblet cells in colon at 10 mg/kg, ip administered for 9 days and measured on day 10 by H and E staining based analysis. The format is functional, organism-based. The following applies: time 10.0 day.
In series [32] the target is NACHT, LRR and PYD domains-containing protein 3 (Mus musculus) (UniProt Q8R4B8). The following applies: J774.A1, dose 30.0 nM, time 3.0 hrs.
Sequence of NACHT, LRR and PYD domains-containing protein 3 (Mus musculus) (Q8R4B8 whole entry, the tested form may be a part): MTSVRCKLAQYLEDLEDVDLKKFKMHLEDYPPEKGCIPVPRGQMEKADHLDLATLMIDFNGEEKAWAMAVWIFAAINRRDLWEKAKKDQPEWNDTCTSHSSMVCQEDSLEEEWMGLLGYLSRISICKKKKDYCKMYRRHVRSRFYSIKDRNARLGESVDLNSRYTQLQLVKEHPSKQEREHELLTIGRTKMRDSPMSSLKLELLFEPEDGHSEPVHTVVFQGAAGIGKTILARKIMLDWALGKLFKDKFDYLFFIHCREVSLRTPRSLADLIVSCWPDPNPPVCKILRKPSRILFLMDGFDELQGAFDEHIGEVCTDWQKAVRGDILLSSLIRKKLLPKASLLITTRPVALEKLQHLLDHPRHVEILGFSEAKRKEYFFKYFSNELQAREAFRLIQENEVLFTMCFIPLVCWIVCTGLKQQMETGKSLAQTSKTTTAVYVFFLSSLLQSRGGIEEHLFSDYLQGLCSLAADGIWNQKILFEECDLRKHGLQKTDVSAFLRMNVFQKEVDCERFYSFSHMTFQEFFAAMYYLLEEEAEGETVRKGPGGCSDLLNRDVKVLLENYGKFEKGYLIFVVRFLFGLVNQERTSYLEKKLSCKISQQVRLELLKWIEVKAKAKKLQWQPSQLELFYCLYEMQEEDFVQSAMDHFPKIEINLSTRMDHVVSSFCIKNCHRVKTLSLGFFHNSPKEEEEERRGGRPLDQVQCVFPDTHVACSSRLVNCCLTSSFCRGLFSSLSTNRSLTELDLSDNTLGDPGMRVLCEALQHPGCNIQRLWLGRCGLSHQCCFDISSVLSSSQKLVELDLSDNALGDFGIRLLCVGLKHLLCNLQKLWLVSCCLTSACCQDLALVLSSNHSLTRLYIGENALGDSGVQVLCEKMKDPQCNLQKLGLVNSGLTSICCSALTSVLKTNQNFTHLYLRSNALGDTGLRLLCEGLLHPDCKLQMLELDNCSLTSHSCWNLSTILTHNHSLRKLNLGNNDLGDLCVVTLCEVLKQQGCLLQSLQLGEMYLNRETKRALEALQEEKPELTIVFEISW
Series [33] has the same target. The following applies: J774.A1, dose 30.0 nM, time 3.0 hrs. The source holds these as a separate data set.

Sequence of NACHT, LRR and PYD domains-containing protein 3 (Q8R4B8 whole entry, the tested form may be a part): as above

The term IC50 denotes the concentration at which inhibition is half-maximal. As to `CN(C)Cc1cccc(S(=O)(=O)NC(=O)Nc2c3c(cc4c2CCC4)CCC3)c1`, in series [1], the IC50 was determined as 0.168 µM.
Same read-out and setting: then `CCCCN(C)Cc1ccc(S(=O)(=O)NC(=O)Nc2c3c(cc4c2CCC4)CCC3)cc1`, with > 10 µM.
On the same count and under the same terms, then `CC(=O)c1cccc(S(=O)(=O)NC(=O)Nc2c3c(cc4c2CCC4)CCC3)c1`, with > 20 µM; and `CN(C)c1ccc(S(=O)(=O)NC(=O)Nc2c3c(cc4c2CCC4)CCC3)cc1`, with > 10 µM; and `CC(C)(C)OC(=O)N1C=C(c2c3c(c(NC(=O)NS(=O)(=O)c4cc(C(C)(C)O)co4)c4c2CCC4)CCC3)CCC1`, with > 5 µM.
The same measure, in the same setting: the result for `CCCN(C)Cc1ccc(S(=O)(=O)NC(=O)Nc2c3c(cc4c2CCC4)CCC3)cc1` reads > 10 µM; that for `CCc1cccc(CC)c1NC(=O)NS(=O)(=O)c1ccc(CN(C)C)cc1`, > 10 µM.
A word on the half-life: it is the time needed for the level to fall by half in the phase considered. Higher therefore signals slow loss. The bioavailability is dose-corrected exposure relative to a reference, in per cent. In the case of `CC(C)(O)c1coc(S(=O)(=O)NC(=O)Nc2c3c(cc4c2CCC4)CCC3)c1`, the Activity entry in [2] is “Non-Toxic”; in series [3], “Non-Toxic”; with L02, “Toxic”; in the series with Hepatocyte, “Toxic”. For the same compound, the result with Mus musculus [4], with Mus musculus [5], in the series on Mus musculus [6], in the series with Mus musculus [7], in the series with Mus musculus [8] and in the series with Mus musculus [9] was Active. For the same compound, the result with Mus musculus [10], in the series on Mus musculus [11], with Mus musculus [14], in the series on Mus musculus [15], with Mus musculus [16] and with Mus musculus [17] was Active. The result in the series with Mus musculus [18], in the series with Mus musculus [19], in the series with Mus musculus [20], with Mus musculus [25], in the series on Mus musculus [27] and with Mus musculus [28] was Active. The outcome with Mus musculus [29], with Mus musculus [30] and in the series with Mus musculus [31] was Active. Further, the concentration for half-maximal inhibition (IC50) in series [1] was found to be 0.014 µM. Besides, the half-life in [12] is 1.32 h. In addition, the bioavailability in series [13] was 85.2%. Moreover, the result in the series with Mus musculus [21], in the series on Mus musculus [22] and with Mus musculus [26] was inactive. Besides, the survival at 40 mg/kg in the series with Mus musculus [23] was 60%. The survival at 20 mg/kg in the series with Mus musculus [24] was determined as 20%. Further, the inhibition result in [32] and in series [33] was “Active” in each case.
Regarding `Cc1cc(C)cc(NC(=O)NS(=O)(=O)c2ccc(CN(C)C)cc2)c1`, the half-inhibitory concentration (IC50) in [1] is > 10 µM.
In the case of `CNC(=O)c1cccc(S(=O)(=O)NC(=O)Nc2c3c(cc4c2CCC4)CCC3)c1`, the IC50 in series [1] stood at 3.72 µM.
The same measure, in the same setting: then `CC(C)(O)c1coc(S(=O)(=O)NC(=O)Nc2c3c(c(-c4cccc(C#N)c4)c4c2CCC4)CCC3)c1`, with > 5 µM.
On the same count and under the same terms, the result for `COC(=O)c1ccc(-c2c3c(c(NC(=O)NS(=O)(=O)c4cc(C(C)(C)O)co4)c4c2CCC4)CCC3)cc1` reads 1.12 µM.
With `CC(C)(O)c1cc(Br)cc(S(=O)(=O)NC(=O)Nc2c3c(cc4c2CCC4)CCC3)c1`, the IC50 in series [1] is > 20 µM.
On the same count and under the same terms, then `CN(C)Cc1cc(S(=O)(=O)NC(=O)Nc2c3c(cc4c2CCC4)CCC3)ccn1`, with 1.68 µM.
Same read-out and setting: the result for `Cc1cccc(C)c1NC(=O)NS(=O)(=O)c1ccc(CN(C)C)cc1` reads > 10 µM.
